Here are results for 21 molecules from ChEMBL document CHEMBL3046918, “Conventional and microwave-assisted synthesis of imidazole and guanidine derivatives and their biological evaluation” (2011).

Structures can show the parent of a compound that is named as a salt.

Holding throughout (type): functional
One test relates to SF-295. As to the kind of experiment: Growth inhibition of Homo sapiens (human) SF295 cells at 10^-5 M after 48 hr by SRB assay. As to conditions: SF-295, 48 h, read-out: GI. On the technique in general: In SRB staining, fixed cells bind dye roughly in proportion to their protein.
For another test, the system named is MCF7. As to the kind of experiment: Growth inhibition of Homo sapiens (human) MCF7 cells at 10^-5 M after 48 hr by SRB assay. As to conditions: MCF7, 48 h, read-out: GI.
The subject of a further test is A549. As to the kind of experiment: Growth inhibition of Homo sapiens (human) A549 cells at 10^-5 M after 48 hr by SRB assay. Particulars: A549, 48 h, read-out: GI.
The test system of the next test is IGROV-1. The experiment in a line: Growth inhibition of Homo sapiens (human) IGROV1 cells at 10^-5 M after 48 hr by SRB assay. Particulars: IGROV-1, 48 h, read-out: GI.
Another test concerns Rattus norvegicus. The experiment in a line: Anti-inflammatory activity in Rattus norvegicus Charles Foster albino (rat) assessed as inhibition of carrageenan-induced paw edema at 50 mg/kg, po administered 30 min prior to carrageenan-challenge measured up to 3 hr relative to control. Further details: scale not given: the % may be the effect or the level left. In general terms: In the carrageenan paw model, swelling and tenderness develop within hours.

The test system of a further test is HOP-62. As to the kind of experiment: Growth inhibition of Homo sapiens (human) HOP62 cells at 10^-5 M after 48 hr by SRB assay. As to conditions: HOP-62, 48 h, read-out: GI.
Another test has as its system PC-3. As to the kind of experiment: Growth inhibition of Homo sapiens (human) PC3 cells at 10^-5 M after 48 hr by SRB assay. As to conditions: PC-3, 48 h, read-out: GI.

Consider `O=C1c2ccccc2C(=O)c2c1ccc1nc(-c3cccc4ccccc34)[nH]c21`, for which the inhibition of growth at 10 µM in the test with SF-295 is 81%; in the test with MCF7 it was 76%; with A549, 93%; in the test with IGROV-1, 71%; in the test with HOP-62 it was 61%; with PC-3 it was 71%. In the test with Rattus norvegicus, the Activity came to 14%.
As to `Cc1ccsc1-c1nc2ccc3c(c2[nH]1)C(=O)c1ccccc1C3=O`, the inhibition of growth at 10 µM was found to be 30% in the test with SF-295; 36% in the test with MCF7; 15% with A549; 6% in the test on IGROV-1; 19% with HOP-62; 16% with PC-3. Moreover, the Activity in the test with Rattus norvegicus was 16%.
Regarding `Cc1ccc(-c2nc3ccc4c(c3[nH]2)C(=O)c2ccccc2C4=O)s1`, the inhibition of growth at 10 µM was determined as 43% in the test with SF-295; 47% in the test with MCF7; 35% in the test on A549; 8% in the test with IGROV-1; 6% with HOP-62; 14% with PC-3. Besides, in the test with Rattus norvegicus, the Activity amounted to 26%.
For the molecule `Cn1cccc1-c1nc2ccc3c(c2[nH]1)C(=O)c1ccccc1C3=O`, the inhibition of growth at 10 µM with SF-295 was found to be 52%; in the test with MCF7 it was 72%; in the test with A549, 31%; in the test on IGROV-1, 27%; in the test with HOP-62 it was 11%; with PC-3 it was 28%. In addition, in the test on Rattus norvegicus, the Activity came to 34%.
On to `O=C1c2ccccc2C(=O)c2c1ccc1nc(-c3ccc4ccccc4c3)[nH]c21`, for which the inhibition of growth at 10 µM in the test with SF-295 amounted to 34%; in the test with MCF7, 26%; in the test on A549, 2%; in the test on IGROV-1 it was 9%; in the test with HOP-62 it was 9%; in the test with PC-3, 15%. The Activity in the test with Rattus norvegicus was determined as 35%.
Turning to `O=C1c2ccccc2C(=O)c2c1ccc1nc(-c3c(O)ccc4ccccc34)[nH]c21`, the inhibition of growth at 10 µM in the test on SF-295 was found to be 92%; in the test on MCF7, 61%; with A549, 97%; in the test with IGROV-1, 82%; in the test with HOP-62 it was 78%; with PC-3, 87%. In addition, in the test with Rattus norvegicus, the Activity worked out at 22%.
On to `Cc1ccsc1-c1nc2cc3nc4ccccc4nc3cc2[nH]1`, for which the inhibition of growth at 10 µM with SF-295 is 28%; with MCF7, 17%; in the test with A549, 27%; in the test with IGROV-1 it was 30%; with HOP-62 it was 4%; with PC-3, 12%. In the test with Rattus norvegicus, the Activity was determined as 38%.
As to `Cc1ccc(-c2nc3cc4nc5ccccc5nc4cc3[nH]2)s1`, the inhibition of growth at 10 µM with SF-295 came out at 32%; in the test with MCF7 it was 56%; in the test with A549, 53%; in the test on IGROV-1 it was 18%; in the test on HOP-62, 20%; in the test on PC-3, 29%. Further, the Activity in the test on Rattus norvegicus came to 10%.
For `Cn1cccc1-c1nc2cc3nc4ccccc4nc3cc2[nH]1`, the inhibition of growth at 10 µM amounted to 40% with SF-295; 41% with MCF7; 36% with A549; 26% with IGROV-1; 12% with HOP-62; 43% with PC-3. For the same molecule, the Activity in the test on Rattus norvegicus is 14%.
In the case of `c1ccc2c(-c3nc4cc5nc6ccccc6nc5cc4[nH]3)cccc2c1`, the inhibition of growth at 10 µM with SF-295 turned out to be 100%; with MCF7, 88%; in the test on A549, 97%; in the test on IGROV-1, 92%; with HOP-62, 98%; in the test with PC-3 it was 97%. For the same molecule, the Activity in the test on Rattus norvegicus was found to be 19%.
With `c1ccc2cc(-c3nc4cc5nc6ccccc6nc5cc4[nH]3)ccc2c1`, the inhibition of growth at 10 µM came out at 20% in the test on SF-295; 29% in the test with MCF7; 26% in the test with A549; 19% in the test on IGROV-1; 9% with HOP-62; 22% with PC-3. For the same molecule, the Activity in the test on Rattus norvegicus worked out at 28%.
Take `Oc1ccc2ccccc2c1-c1nc2cc3nc4ccccc4nc3cc2[nH]1`: the inhibition of growth at 10 µM in the test on SF-295 was found to be 97%; in the test on MCF7, 84%; in the test on A549, 87%; with IGROV-1, 84%; with HOP-62 it was 90%; with PC-3, 81%. The Activity in the test with Rattus norvegicus was found to be 30%.
In the case of `Cc1ccsc1/C=N\C(=N)Nc1nc2ccccc2[nH]1`, the inhibition of growth at 10 µM with SF-295 amounted to 40%; in the test on MCF7 it was 9%; in the test with A549 it was 3%; in the test with IGROV-1, 17%; in the test on HOP-62, 13%; in the test with PC-3, 10%. Besides, in the test with Rattus norvegicus, the Activity amounted to 38%.
With `Cc1ccc(/C=N\C(=N)Nc2nc3ccccc3[nH]2)s1`, the inhibition of growth at 10 µM with SF-295 was found to be 36%; with MCF7, 0%; with A549 it was 13%; in the test with IGROV-1 it was 20%; in the test with HOP-62, 14%; in the test with PC-3 it was 8%. In addition, the Activity in the test with Rattus norvegicus is given as 24%.
Turning to `Cn1cccc1/C=N/C(=N)Nc1nc2ccccc2[nH]1`, the inhibition of growth at 10 µM was found to be 40% with SF-295; 24% in the test on MCF7; 12% with A549; 23% in the test on IGROV-1; 28% in the test on HOP-62; 1% in the test on PC-3. Besides, the Activity with Rattus norvegicus is on record as 0%.
As to `N=C(/N=C/c1cccc2ccccc12)Nc1nc2ccccc2[nH]1`, the inhibition of growth at 10 µM with SF-295 was found to be 40%; in the test with MCF7, 25%; in the test with A549 it was 9%; in the test with IGROV-1 it was 13%; in the test with HOP-62 it was 26%; in the test with PC-3, 13%. For the same molecule, the Activity in the test on Rattus norvegicus stood at 34%.
For `N=C(/N=C\c1ccc2ccccc2c1)Nc1nc2ccccc2[nH]1`, the inhibition of growth at 10 µM in the test with SF-295 is 42%; in the test with MCF7, 6%; in the test on A549 it was 8%; with IGROV-1 it was 26%; in the test on HOP-62, 18%; in the test with PC-3 it was 10%. The Activity in the test with Rattus norvegicus is reported as 26%.
Turning to `N=C(/N=C/c1c(O)ccc2ccccc12)Nc1nc2ccccc2[nH]1`, the inhibition of growth at 10 µM amounted to 34% in the test on SF-295; 4% in the test on MCF7; 2% with A549; 23% in the test on IGROV-1; 9% in the test with HOP-62; 15% with PC-3. Moreover, in the test on Rattus norvegicus, the Activity stood at 0%.
As to `COc1cccc2c1C(=O)c1c(O)c3c(c(O)c1C2=O)C[C@@](O)(C(=O)CO)C[C@@H]3O[C@H]1C[C@H](N)[C@H](O)[C@H](C)O1` [DOXORUBICIN HYDROCHLORIDE], the inhibition of growth at 10 µM in the test on SF-295 came out at 69%; with MCF7, 72%; in the test on A549, 27%; with IGROV-1, 39%; in the test with HOP-62, 32%.
Turning to `CO[C@@]12[C@H](COC(N)=O)C3=C(C(=O)C(C)=C(N)C3=O)N1C[C@@H]1N[C@@H]12` [MITOMYCIN], the inhibition of growth at 10 µM in the test with SF-295 came to 43%; in the test with IGROV-1, 47%; in the test with PC-3 it was 61%.
On to `CC(=O)O[C@H]1C(=O)[C@@]2(C)[C@H]([C@H](OC(=O)c3ccccc3)[C@]3(O)C[C@H](OC(=O)[C@H](O)[C@@H](NC(=O)c4ccccc4)c4ccccc4)C(C)=C1C3(C)C)[C@]1(OC(C)=O)CO[C@@H]1C[C@@H]2O` [PACLITAXEL], for which the inhibition of growth at 10 µM in the test on A549 is 54%; with IGROV-1 it was 37%; in the test with HOP-62, 37%.
